Consider two molecules from article PMC4290489, “Identification of multiple salicylic acid-binding proteins using two high throughput screens” (Frontiers in Plant Science, 2015).

Holding throughout (format): binding
Assay [1] has as its target T1, SHM4 (Arabidopsis thaliana, UniProt O23254).
T1 construct: N-terminal His6 (pET28a), from E. coli
T1 sequence (O23254 1-471): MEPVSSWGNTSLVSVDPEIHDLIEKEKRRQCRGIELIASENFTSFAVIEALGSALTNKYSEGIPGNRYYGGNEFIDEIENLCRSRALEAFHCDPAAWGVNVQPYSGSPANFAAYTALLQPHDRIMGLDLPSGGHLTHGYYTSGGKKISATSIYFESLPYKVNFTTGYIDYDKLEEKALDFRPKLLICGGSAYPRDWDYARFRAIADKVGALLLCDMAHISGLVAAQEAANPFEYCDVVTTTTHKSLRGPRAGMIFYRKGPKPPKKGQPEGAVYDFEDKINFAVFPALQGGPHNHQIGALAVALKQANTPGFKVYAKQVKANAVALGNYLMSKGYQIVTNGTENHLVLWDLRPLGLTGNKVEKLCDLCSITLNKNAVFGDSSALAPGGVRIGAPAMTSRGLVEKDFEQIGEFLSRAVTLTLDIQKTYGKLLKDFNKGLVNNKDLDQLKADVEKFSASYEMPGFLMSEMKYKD
The assay is described as follows: UV photo-crosslinking, anti-SA immunoblot. As to conditions: 50 uM 4AzSA, PBS, on ice, 254 nm UV; covalent; competed by SA. (In western blotting, separated proteins are transferred to a membrane and probed.)

Assay [2] deals with T2, TPPII (Arabidopsis thaliana, UniProt F4JVN6).
T2 construct: gene TPP2; N-terminal His6 (pET28a), from E. coli
T2 sequence (F4JVN6 1-1380): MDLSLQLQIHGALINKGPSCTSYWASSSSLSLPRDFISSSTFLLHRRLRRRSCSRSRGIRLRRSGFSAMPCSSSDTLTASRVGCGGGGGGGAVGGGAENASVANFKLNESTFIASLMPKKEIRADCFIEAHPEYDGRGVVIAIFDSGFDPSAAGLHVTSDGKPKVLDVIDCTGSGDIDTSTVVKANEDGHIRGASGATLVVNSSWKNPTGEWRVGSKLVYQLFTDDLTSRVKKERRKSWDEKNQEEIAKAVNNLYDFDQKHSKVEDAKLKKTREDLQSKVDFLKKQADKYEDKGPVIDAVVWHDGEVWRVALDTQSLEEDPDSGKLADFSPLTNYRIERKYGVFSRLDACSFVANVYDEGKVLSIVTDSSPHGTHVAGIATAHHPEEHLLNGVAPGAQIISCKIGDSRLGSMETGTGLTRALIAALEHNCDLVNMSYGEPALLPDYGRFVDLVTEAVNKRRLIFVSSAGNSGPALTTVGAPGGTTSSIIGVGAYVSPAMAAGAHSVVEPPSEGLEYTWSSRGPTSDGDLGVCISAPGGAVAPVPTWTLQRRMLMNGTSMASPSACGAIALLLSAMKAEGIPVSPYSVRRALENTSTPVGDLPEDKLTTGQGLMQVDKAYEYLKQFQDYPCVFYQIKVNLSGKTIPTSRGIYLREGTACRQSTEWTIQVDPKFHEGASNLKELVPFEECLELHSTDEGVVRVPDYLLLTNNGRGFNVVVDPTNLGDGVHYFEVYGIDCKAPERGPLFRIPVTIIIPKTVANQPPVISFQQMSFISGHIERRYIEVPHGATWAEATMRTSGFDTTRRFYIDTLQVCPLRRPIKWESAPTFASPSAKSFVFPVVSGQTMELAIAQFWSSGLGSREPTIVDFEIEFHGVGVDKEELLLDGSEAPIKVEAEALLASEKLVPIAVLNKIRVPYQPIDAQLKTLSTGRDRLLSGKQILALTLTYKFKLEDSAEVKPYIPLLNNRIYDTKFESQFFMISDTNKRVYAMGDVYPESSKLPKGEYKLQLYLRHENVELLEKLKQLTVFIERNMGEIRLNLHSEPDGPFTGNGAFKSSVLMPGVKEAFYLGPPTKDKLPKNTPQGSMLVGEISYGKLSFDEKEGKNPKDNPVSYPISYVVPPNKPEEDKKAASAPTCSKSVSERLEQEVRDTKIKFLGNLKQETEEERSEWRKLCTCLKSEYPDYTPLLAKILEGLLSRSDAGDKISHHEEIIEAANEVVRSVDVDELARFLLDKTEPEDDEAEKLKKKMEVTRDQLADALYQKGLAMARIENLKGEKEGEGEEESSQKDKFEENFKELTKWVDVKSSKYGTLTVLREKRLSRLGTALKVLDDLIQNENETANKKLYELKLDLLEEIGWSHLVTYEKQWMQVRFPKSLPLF
The assay can be described thus: UV photo-crosslinking, anti-SA immunoblot. Particulars: 50 uM 4AzSA, PBS, on ice, 254 nm UV; covalent; competed by SA.

The target of assay [3] is T3, NPR1 (Arabidopsis thaliana, UniProt P93002).
T3 construct: N-terminal His6-MBP fusion (pET-MALHT), from E. coli, Ni-NTA and gel filtration
T3 sequence (P93002 1-593): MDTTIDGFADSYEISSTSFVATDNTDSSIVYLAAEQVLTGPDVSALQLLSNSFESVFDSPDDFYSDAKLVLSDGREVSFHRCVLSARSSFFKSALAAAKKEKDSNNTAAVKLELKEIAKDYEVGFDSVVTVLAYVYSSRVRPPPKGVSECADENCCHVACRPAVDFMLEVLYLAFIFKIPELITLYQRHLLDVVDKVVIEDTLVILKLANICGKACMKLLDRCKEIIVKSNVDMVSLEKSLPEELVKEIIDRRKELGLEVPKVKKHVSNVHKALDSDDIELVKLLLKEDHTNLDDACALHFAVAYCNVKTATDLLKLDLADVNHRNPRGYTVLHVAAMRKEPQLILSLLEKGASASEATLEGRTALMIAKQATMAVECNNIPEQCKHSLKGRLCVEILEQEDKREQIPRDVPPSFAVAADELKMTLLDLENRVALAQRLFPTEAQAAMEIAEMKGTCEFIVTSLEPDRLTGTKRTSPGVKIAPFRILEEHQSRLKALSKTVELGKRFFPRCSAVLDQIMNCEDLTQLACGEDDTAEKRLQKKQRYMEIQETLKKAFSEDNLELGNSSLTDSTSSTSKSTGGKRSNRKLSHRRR
The assay can be described thus: UV photo-crosslinking, anti-SA immunoblot. As to conditions: 50 uM 4AzSA, PBS, on ice, 254 nm UV; covalent; competed by SA.

Assay [4] concerns the target T4, TRX-m1 (Arabidopsis thaliana, UniProt O48737).
T4 construct: gene At1g03680; N-terminal His6 (pET28a), from E. coli
T4 sequence (O48737 49-179): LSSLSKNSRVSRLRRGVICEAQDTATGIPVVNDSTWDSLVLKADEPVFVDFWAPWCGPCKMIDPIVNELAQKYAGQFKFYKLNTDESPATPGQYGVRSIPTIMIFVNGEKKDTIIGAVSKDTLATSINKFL
The assay can be described thus: SPR competition on 3AESA chip; competition of 4AzSA photo-crosslinking. As to conditions: 1-5 mM SA, HBS-EP pH 7.4 (SPR); competes with 3AESA and 4AzSA.

Each structure is given as a SMILES string.

Regarding `[N-]=[N+]=Nc1ccc(C(=O)O)c(O)c1` [4AzSA], the “UV photo-crosslinking, anti-SA immunoblot” value in assay [1] is “These five proteins also bound and crosslinked to 4AzSA”; in assay [2], “These five proteins also bound and crosslinked to 4AzSA”; in assay [3], “NPR1 bound and was crosslinked to 4AzSA; this crosslinking was suppressed by increasing levels of SA”.

With `O=C(O)c1ccccc1O` [SA], the “SPR competition on 3AESA chip; competition of 4AzSA photo-crosslinking” value in assay [4] was “SA competes with 3AESA and 4AzSA for binding by TRX-m1, TPPII, SHM4, and LOX2”.
